Common to all, as to assay type: cell-based
Experiment [1] has as its target T1, 320 non-olfactory GPCRs (Homo sapiens, UniProt Q8TDV5).
T1 construct: expressed in transfected cells; host or cells: HTLA cells

Experiment [2] deals with T2, 320 non-olfactory GPCRs (Homo sapiens, UniProt Q8TDS7).
T2 construct: expressed in transfected cells; host or cells: HTLA cells
The following applies: receptor MRGPRD; replicate values, Fig_4g.

Experiment [3] has as its target T3, 320 non-olfactory GPCRs (Homo sapiens, UniProt Q16602).
T3 construct: expressed in transfected cells; host or cells: HTLA cells

Experiment [4] concerns the target T4, 320 non-olfactory GPCRs (Homo sapiens, UniProt P32248).
T4 construct: expressed in transfected cells; host or cells: HTLA cells

These results are taken from PMC7044277 (Nature Communications, 2020).

Several values for one entry are separate records, joined by “and”; a condition that tells them apart may be missing. Equal entries are not always repeated.
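Throughout, for Fold of Basal: compound tested at 1 µM final concentration.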
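Throughout, for GPCRome agonism screen response: fold over basal response of each receptor without drug.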

T3 sequence (Q16602 23-461): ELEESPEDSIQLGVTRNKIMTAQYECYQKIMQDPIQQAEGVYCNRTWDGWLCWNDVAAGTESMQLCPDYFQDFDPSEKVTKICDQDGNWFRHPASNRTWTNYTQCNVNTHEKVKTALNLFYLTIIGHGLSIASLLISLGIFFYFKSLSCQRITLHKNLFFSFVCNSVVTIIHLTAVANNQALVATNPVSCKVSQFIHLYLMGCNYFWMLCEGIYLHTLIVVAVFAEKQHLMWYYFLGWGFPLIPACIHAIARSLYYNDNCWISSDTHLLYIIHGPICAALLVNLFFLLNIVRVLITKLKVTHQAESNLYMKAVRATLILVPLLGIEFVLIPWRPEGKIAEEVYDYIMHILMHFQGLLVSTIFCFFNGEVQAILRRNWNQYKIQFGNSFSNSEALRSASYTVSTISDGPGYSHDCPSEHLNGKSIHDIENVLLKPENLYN
T1 sequence (Q8TDV5 whole entry): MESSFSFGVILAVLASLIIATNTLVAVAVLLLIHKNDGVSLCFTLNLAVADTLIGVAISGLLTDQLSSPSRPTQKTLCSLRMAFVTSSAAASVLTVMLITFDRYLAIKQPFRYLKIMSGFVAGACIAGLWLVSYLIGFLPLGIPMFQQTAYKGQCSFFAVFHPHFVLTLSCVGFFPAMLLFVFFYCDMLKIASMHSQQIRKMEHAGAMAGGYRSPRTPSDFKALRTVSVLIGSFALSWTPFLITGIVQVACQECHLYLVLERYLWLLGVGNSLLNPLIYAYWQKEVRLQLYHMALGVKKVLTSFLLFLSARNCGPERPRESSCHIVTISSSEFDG
T4 sequence (P32248 25-378): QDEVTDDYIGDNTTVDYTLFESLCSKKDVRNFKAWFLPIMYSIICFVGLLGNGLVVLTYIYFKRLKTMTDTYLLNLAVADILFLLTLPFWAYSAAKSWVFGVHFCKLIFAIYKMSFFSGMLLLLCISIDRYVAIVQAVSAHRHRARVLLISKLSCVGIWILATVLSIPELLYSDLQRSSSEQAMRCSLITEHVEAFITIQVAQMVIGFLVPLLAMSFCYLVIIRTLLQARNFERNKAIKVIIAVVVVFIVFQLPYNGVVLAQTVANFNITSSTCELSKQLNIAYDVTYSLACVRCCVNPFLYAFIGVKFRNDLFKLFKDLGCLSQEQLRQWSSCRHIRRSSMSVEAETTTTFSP
T2 sequence (Q8TDS7 whole entry): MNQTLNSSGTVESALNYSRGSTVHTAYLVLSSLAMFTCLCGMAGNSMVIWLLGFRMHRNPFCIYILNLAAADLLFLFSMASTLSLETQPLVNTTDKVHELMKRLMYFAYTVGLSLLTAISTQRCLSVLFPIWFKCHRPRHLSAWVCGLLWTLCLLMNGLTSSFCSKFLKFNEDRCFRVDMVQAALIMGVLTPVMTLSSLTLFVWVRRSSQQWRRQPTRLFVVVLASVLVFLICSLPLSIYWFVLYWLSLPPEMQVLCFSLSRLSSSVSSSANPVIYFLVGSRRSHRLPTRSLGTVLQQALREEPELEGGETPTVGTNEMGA

Turning to `CCOc1cccc2cc(C(C)NCC3(O)CCCCC3)oc12` (stereo not shown) [O4LE6], the “Fold of Basal” value in experiment [1] was 0.5971 and 0.6704 and 0.4797 and 0.8296; in experiment [3], 0.7801 and 0.8303 and 0.6573 and 0.7619; in experiment [4], 1.25 and 0.8767 and 0.9045 and 1.727. Further, the “GPCRome agonism screen response” value in experiment [2] is 1.227 and 0.5077 and 1.775 and 0.8477.
